In brackets after ≈: the same amount, converted by molar mass. Several values for one entry are separate records, joined by “and”; a condition that tells them apart may be missing. Equal values may be shown once. Read-outs that look alike come from different tables or passages of the source.
How the values were obtained:
S. aureus ATCC 13709 [1] = assay: microbe, parasite or virus in culture; assay type: cell-based; conditions: for Serum dependence of antibacterial activity (in words): MIC with versus without serum; for MIC: Staphylococcus aureus, ATCC13709, 18 h
Procedure: (§1) Susceptibility of S. aureus strains to the known antibiotics and synthesized compounds was determined by following the guidelines set by NCCLS (M26-A). Compounds were diluted two-fold serially in DMSO and transferred to cation-adjusted Mueller Hinton broth (CAMHB; Becton Dickinson). 50 μL of compounds diluted in CAMHB was mixed with 100 μL of bacteria diluted in CAMHB in 96-well microtiter plates. The final concentration of micro-organisms in the assay was 5×10^5c.f.u. per mL and the final concentration of DMSO in the assay was 1.25%. Assays were set up in duplicate and incubated at 37° C. for 18 h. The lowest concentration of compound that inhibited visible growth was reported as the minimum inhibitory concentration (MIC).
Susceptibility testing experiments were also carried out in the presence of serum. These experiments were carried out similar to the susceptibility testing with the following modifications. 75 μL of compounds diluted in CAMHB was mixed with 75 μL of bacteria diluted in 100% serum from any given source (commercial pooled mouse serum (MS) and human serum (HS), Equitech-Bio Inc.) or diluted in 8% purified human serum albumin (HSA) (Calbiochem). The final concentration of animal serum in the assay was 50% and the final concentration of purified human serum albumin in the assay was 4%; the concentrations of all other components were identical to those described for susceptibility testing.

S. aureus ATCC 13709 [2] = assay: microbe, parasite or virus in culture; assay type: cell-based; conditions: for Antibacterial activity (in words, from Table 1): S. aureus MIC
Procedure: as §1

[3] = test system: S. aureus ATCC 13709^A, Novobiocin and Rifampicin resistant variant; assay: Antibacterial susceptibility (MIC), NCCLS broth microdilution; assay type: cell-based
Procedure: as §1

S. aureus ATCC 29213 = assay: as above; assay type: cell-based; conditions: CAMHB, 37° C., 18 h
Procedure: as §1

[4] = test system: Novobiocin resistant mutant strain of S. aureus ATCC 13709; assay: Prophylactic efficacy in rat model of S. aureus bone infection; assay type: in vivo; conditions: tibia 24 h postinfection; for Measured bacterial titer, parent drug: rifabutin 20 mg/kg, listed as Parent drug
Procedure: To determine the in vivo activity of bisphosphonated prodrugs of Rifamycin derived antibacterials in comparison to their non-bisphosphonated parents, compounds 18, 19, 48a, 59, 66, 89, 95, 102, 110, 142b and 164 and their parent drug rifabutin were used as prophylactic therapeutics in an animal model of infection. Specifically, a spontaneous Novobiocin resistant mutant strain of S. aureus ATCC 13709 (a clinical osteomyelitis isolate), was grown overnight at 37° C. in brain heart infusion broth (BHIB). After 16 h of growth, cells were subcultured into fresh BHIB and incubated for 4 to 5 h at 37° C. The cells were washed twice with phosphate-buffered saline (PBS) and resuspended in BHIB supplemented with 10% (vol./vol.) fetal bovine serum at a density of approximately 10^10 colony forming units (CFU)/ml (based upon turbidimetry). The suspension was aliquoted and a portion was used to check the CFU count. The culture was stored frozen (−80° C.) and was used without subculture. For use as an inoculum the culture was thawed, diluted in PBS and kept in an ice bath until it was used.
Animals were infected as described by O'Reilly et al. (Antimicrobial Agents and Chemotherapy (1992), 36(12): 2693-97) to generate the bone infection. Female CD rats (age, 57 to 70 days; n=5/group; Charles River, St-Constant, Canada) were anaesthetized by isofluorane before and during the surgery. Following complete induction of anesthesia, the rat was placed ventral side up and hair was shaved from the surgical site. The skin over the leg was cleaned and disinfected (proviodine-ethanol 70%). A longitudinal incision below the knee joint was made in the sagital plane. The incision was made over the bone below the “knee joint” (tibia head or condyle) but not completely extending to the ankle. A high speed drill fitted with a 2 mm bulb bit was used to drill a hole into the medullar cavity of the tibia. Rats were injected intra-tibially with 0.05 ml 5% sodium morrhuate (sclerosing agent) and then with 0.05 ml of S. aureus suspension (ca. 2×10^7 CFU/rat). The hole was sealed by applying a small amount of dry dental cement which immediately absorbs fluids and adheres to the site. The wound was closed using 3 metal skin clips. Moxifloxacin (as a positive control) was injected once at 10 mg/kg intravenously 1 h postinfection in saline, while the Rifabutin derived prodrugs (prepared in 0.9% saline) were injected at the dose indicated in Table 3 as a single intravenous bolus at different time points prior to the infection.
Infected rats were sacrificed by CO2 asphyxiation 24 h postinfection to monitor the bacterial CFU count. Infected tibiae were removed, dissected free of soft tissue, and weighed. The bones were ground, 50 mg of charcoal were added and the powder was resuspended in 5 ml 0.9% NaCl, serially diluted and processed for quantitative cultures. Treatment efficacy was measured in terms of Log viable bacteria (Log CFU per gram of bone). […] The limit of detection is 2 Log CFU. Statistical comparisons of viable bacterial counts for the different treated and untreated groups were performed with the Dunnett's multiple-comparison test. Differences were considered significant when the P value was <0.05 when comparing treated infected animals to the untreated infected ones. The doses used, the amount of time separating the treatment from the time of infection and the treatment outcomes are shown in Table 3.

Structure (SMILES)	Minimum inhibitory concentration, ATCC 13709 + 50% Human Serum (S. aureus ATCC 13709 [1]; 50% Human Serum) [µg/mL]	Minimum inhibitory concentration, ATCC 13709 + 50% Mouse Serum (S. aureus ATCC 13709 [1]; 50% Mouse Serum) [µg/mL]	Minimum inhibitory concentration, ATCC 13709 + 50% Rat Serum (S. aureus ATCC 13709 [1]) [µg/mL]	Minimum inhibitory concentration, S. aureus ATCC 13709 (S. aureus ATCC 13709 [2]; CAMHB, 37° C., 18 h) [µg/mL]	Minimum inhibitory concentration, S. aureus ATCC 13709^A [3] [µg/mL]	Minimum inhibitory concentration, S. aureus ATCC 29213 (S. aureus ATCC 29213) [µg/mL]	other results
CO[C@H]1/C=C/O[C@@]2(C)Oc3c(C)c(O)c4c(c3C2=O)C2=NC3(CCN(CC(C)C)CC3)NC2=C(NC(=O)/C(C)=C\C=C\[C@H](C)[C@H](OC(=O)CN(C)CCOC(=O)CNC(=O)CCC(P(=O)(O)O)P(=O)(O)O)[C@@H](C)[C@@H](O)[C@@H](C)[C@H](OC(C)=O)[C@@H]1C)C4=O [Compound 42]	0.0625	0.125	0.03125	0.125 (≈ 0.1 µM)	>128	0.25 (≈ 0.2 µM)	Antibacterial activity (in words, from Table 1) (S. aureus ATCC 13709 [2]): very low MICs whether in the absence or in the presence of serum
CO[C@H]1/C=C/O[C@@]2(C)Oc3c(C)c(O)c4c(c3C2=O)C2=NC3(CCN(CC(C)C)CC3)NC2=C(NC(=O)/C(C)=C\C=C\[C@H](C)[C@H](OC(=O)CN(CCCCC(P(=O)(O)O)P(=O)(O)O)CCOC(C)=O)[C@@H](C)[C@@H](O)[C@@H](C)[C@H](OC(C)=O)[C@@H]1C)C4=O [Compound 48b]	0.5	0.25	0.0625	0.25 (≈ 0.205 µM)	>128	0.5 (≈ 0.41 µM)	Antibacterial activity (in words, from Table 1) (S. aureus ATCC 13709 [2]): very low MICs whether in the absence or in the presence of serum
CCCC(=O)OCCN(CCC(P(=O)(O)O)P(=O)(O)O)CC(=O)O[C@@H]1[C@@H](C)[C@@H](O)[C@@H](C)[C@H](OC(C)=O)[C@H](C)[C@@H](OC)/C=C/O[C@@]2(C)Oc3c(C)c(O)c4c(c3C2=O)C2=NC3(CCN(CC(C)C)CC3)NC2=C(NC(=O)/C(C)=C\C=C\[C@@H]1C)C4=O [Compound 52]	16	2	0.5	4 (≈ 3.28 µM)	>128	8 (≈ 6.56 µM)	Serum dependence of antibacterial activity (in words) (S. aureus ATCC 13709 [1]): significant increase in antibacterial activity in serum
CCCCOC(=O)NCCN(CCCCC(P(=O)(O)O)P(=O)(O)O)CC(=O)O[C@@H]1[C@@H](C)[C@@H](O)[C@@H](C)[C@H](OC(C)=O)[C@H](C)[C@@H](OC)/C=C/O[C@@]2(C)Oc3c(C)c(O)c4c(c3C2=O)C2=NC3(CCN(CC(C)C)CC3)NC2=C(NC(=O)/C(C)=C\C=C\[C@@H]1C)C4=O [Compound 71]	16	8	1	4 (≈ 3.13 µM)	>128	8 (≈ 6.26 µM)	Serum dependence of antibacterial activity (in words) (S. aureus ATCC 13709 [1]): significant increase in antibacterial activity in serum
CO[C@H]1/C=C/O[C@@]2(C)Oc3c(C)c(O)c4c(c3C2=O)C2=NC3(CCN(CC(C)C)CC3)NC2=C(NC(=O)/C(C)=C\C=C\[C@H](C)[C@H](OC(=O)CN(C)C(=O)CNC(=O)[C@@H](Cc2ccccc2)NC(=O)CNC(=O)CCC(P(=O)(O)O)P(=O)(O)O)[C@@H](C)[C@@H](O)[C@@H](C)[C@H](OC(C)=O)[C@@H]1C)C4=O.N.N [Compound 79a]	–	–	64	16	>128	16	Minimum inhibitory concentration, ATCC 13709 + 50% Human Serum (S. aureus ATCC 13709 [1]): >128 µg/mL; Minimum inhibitory concentration, ATCC 13709 + 50% Mouse Serum (S. aureus ATCC 13709 [1]): >128 µg/mL
CO[C@H]1/C=C/O[C@@]2(C)Oc3c(C)c(O)c4c(c3C2=O)C2=NC3(CCN(CC(C)C)CC3)NC2=C(NC(=O)/C(C)=C\C=C\[C@H](C)[C@H](OC(=O)CNC(=O)CNC(=O)[C@@H](Cc2ccccc2)NC(=O)CNC(=O)CCC(P(=O)(O)O)P(=O)(O)O)[C@@H](C)[C@@H](O)[C@@H](C)[C@H](OC(C)=O)[C@@H]1C)C4=O.N.N [Compound 79b]	128	64	8	64	>128	64	–
COc1c(N2C[C@@H]3CCCN[C@@H]3C2)c(F)cc2c(=O)c(C(=O)O)cn(C3CC3)c12 [Moxifloxacin, reference compound]	–	–	–	–	–	–	Measured bacterial titer, positive control ([4]; Moxifloxacin 10 mg/kg intravenously once 1 h postinfection, listed as Positive control): 2.62 ± 0.37 Log CFU/g of bone and 3.22 ± 0.65 Log CFU/g of bone and 2.27 ± 0.21 Log CFU/g of bone and 2.63 ± 0.65 Log CFU/g of bone and 2.06 ± 0.10 Log CFU/g of bone and 2.95 ± 1.07 Log CFU/g of bone and 2.2 ± 0.28 Log CFU/g of bone and 3.01 ± 0.74 Log CFU/g of bone
CO[C@H]1/C=C/O[C@@]2(C)Oc3c(C)c(O)c4c(c3C2=O)C2=NC3(CCN(CC(C)C)CC3)NC2=C(NC(=O)/C(C)=C\C=C\[C@H](C)[C@H](O)[C@@H](C)[C@@H](O)[C@@H](C)[C@H](OC(C)=O)[C@@H]1C)C4=O [Rifabutin, reference compound]	–	–	–	–	–	–	MIC (S. aureus ATCC 13709 [1]; read-out: Minimum inhibitory concentration, ATCC 13709 + 50% Human Serum): 0.0312 µg/mL; MIC (S. aureus ATCC 13709 [1]; read-out: Minimum inhibitory concentration, ATCC 13709 + 50% Mouse Serum): 0.0625 µg/mL; MIC (S. aureus ATCC 13709 [1]; read-out: Minimum inhibitory concentration, ATCC 13709 + 50% Rat Serum): 0.0312 µg/mL; Measured bacterial titer, parent drug ([4]; 1 day prior to infection): 2.03 ± 0.07 Log CFU/g of bone and 2.09 ± 0.06 Log CFU/g of bone and 2.03 ± 0.09 Log CFU/g of bone and 2.07 ± 0.09 Log CFU/g of bone and 2.35 ± 1.12 Log CFU/g of bone; Measured bacterial titer, parent drug ([4]; 5 days prior to infection): 2.75 ± 0.94 Log CFU/g of bone and 4.27 ± 1.91 Log CFU/g of bone and 4.34 ± 0.79 Log CFU/g of bone and 4.71 ± 1.05 Log CFU/g of bone; MIC (S. aureus ATCC 13709 [2]; Staphylococcus aureus, ATCC13709, CAMHB, 37° C., 18 h, read-out: Minimum inhibitory concentration, S. aureus ATCC 13709): 0.0312 µg/mL (≈ 0.0369 µM); MIC (S. aureus ATCC 29213; Staphylococcus aureus, ATCC29213, read-out: Minimum inhibitory concentration, S. aureus ATCC 29213): 0.0156 µg/mL (≈ 0.0184 µM)

Source: US8524691B2, “Phosphonated rifamycins and uses thereof for the prevention and treatment of bone and joint infections” (The Medicines Company, priority 2008, dated 2013)
